This is an account of results in article PMC10057847, “Precision engineering of biological function with large-scale measurements and machine learning” (PLOS ONE, 2023).

The assay concerns the target T1, pVER-IPTG-077 (Escherichia coli, UniProt P03023, A222T/D152E/I64V/K327N/L295M/N208I/Q131R/T141A/V95M).
T1 construct: gene lacI; LacI expressed from pVER plasmid
Briefly: In vivo IPTG dose-response of LacI-regulated eYFP expression from the pVER plasmid in E. coli grown in rich M9 medium at 37 °C, measured by flow cytometry and fitted to the Hill equation by Bayesian MCMC (posterior mean and SD). It counts as cell-based, E. coli MG1655Δlac. Particulars: read-out: log_ec50 (base-10 logarithm of EC50 in μmol/L) (converted). As to the method:
All reported measurements were completed using E. coli strain MG1655Δlac, in which the lactose operon of E. coli strain MG1655 (ATCC #47076) was replaced with the bleomycin resistance gene from Streptoalloteichus hindustanus (Shble).
Dose-response curves were measured with flow cytometry using E. coli MG1655Δlac transformed with variants of the pVER plasmid, described previously. The plasmid contained different variants of the lacI coding DNA sequence (CDS), as described in the text, and an expression cassette with enhanced yellow fluorescent protein (eYFP) under the control of the lactose operator (lacO). The lacI CDS was verified with Sanger sequencing for each variant.
All cultures were grown in a rich M9 media (3 g/L KH2PO4, 6.78 g/L Na2HPO4, 0.5 g/L NaCl, 1 g/L NH4Cl, 0.1 mmol/L CaCl2, 2 mmol/L MgSO4, 4% glycerol, and 20 g/L casamino acids) supplemented with 50 μg/mL kanamycin.
• Prepare first growth plate, with 450 μL rich M9 media in each well. • Pipette 50 μL of starter culture into each well in rows B-G of the plate (leaving rows A and H blank). • Use a E. coli containing a different lacI variant for each row. • Seal first growth plate with gas permeable membrane. • Incubate plate in plate reader for 12 h to 14 h. • Grow to stationary to provide a reproducible starting point for each measurement. • Prepare second growth plate with 490 μL in each well. • Dilution series of isopropyl-β-D-thiogalactopyranoside (IPTG): 11 columns of a 2-fold serial dilution gradient and one column with zero IPTG. • Ten minutes before the end of the incubation cycle for the first growth plate, move the second growth plate to a heated station set to 47°C. • Ten minutes at 47°C will pre-warm the media in the plate to 37°C. • De-seal the first growth plate (after completion of the stationary-phase incubation cycle). • Pipette 10 μL from each well in the first growth plate to the corresponding well in the second growth plate. • 50-fold dilution; using a 96-channel pipetting head. • Seal second growth plate with gas permeable membrane. • Incubate second growth plate in plate reader for 160 minutes. • Sufficient for approximately 10-fold increase in cell density or 3.3 doublings. • Prepare third growth plate with 450 μL in each well. • Same dilution series as in second growth plate. • Ten minutes before the end of the incubation cycle for the second growth plate, move the third growth plate to a heated station set to 47°C. • De-seal the second growth plate (after completion of the 160 minute incubation cycle). • Pipette 50 μL from each well in the second growth plate to the corresponding well in the third growth plate. • 10-fold dilution; using a 96-channel pipetting head. • Seal third growth plate with gas permeable membrane. • Incubate third growth plate in plate reader for 160 minutes. • Prepare flow cytometry sample plate (round-bottom 96-well plate, Falcon, 351177). • Each well in rows B-G: 195 μL 1x PBS with 170 μg/mL chloramphenicol (Fisher BioReagents, cat. #BP904-100). • Rows A and H: PBS blanks, focusing fluid blanks, and space for calibration bead sample • At the end of the incubation cycle for the third growth plate, pipette 5 μL from each well to the corresponding well in the flow cytometry sample plate.
Flow cytometry samples were measured with an Attune NxT flow cytometer equipped with a 96-well plate autosampler using a 488 nm excitation laser and a 530 nm ± 15 nm bandpass emission filter. Blank samples were measured with each batch of cell measurements, and an automated gating algorithm was used to discriminate cell events from non-cell events. Fluorescence calibration beads (Spherotech, part no. RCP-30-20A) were also measured with each batch of samples to facilitate calibration of flow cytometry data to molecules of equivalent fluorescein (MEF). […]

T1 sequence (P03023 whole entry I64V/V95M/Q131R/T141A/D152E/N208I/A222T/L295M/K327N): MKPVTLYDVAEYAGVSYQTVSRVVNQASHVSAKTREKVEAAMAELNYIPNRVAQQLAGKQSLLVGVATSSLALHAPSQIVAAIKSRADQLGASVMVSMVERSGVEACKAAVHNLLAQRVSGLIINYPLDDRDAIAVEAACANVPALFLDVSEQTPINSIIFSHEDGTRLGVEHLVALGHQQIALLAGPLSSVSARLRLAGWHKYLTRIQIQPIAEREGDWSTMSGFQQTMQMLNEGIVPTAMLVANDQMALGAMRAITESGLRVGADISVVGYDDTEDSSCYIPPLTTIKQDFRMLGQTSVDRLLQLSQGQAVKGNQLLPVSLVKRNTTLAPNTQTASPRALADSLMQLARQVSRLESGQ

On to `CC(C)S[C@@H]1O[C@H](CO)[C@H](O)[C@H](O)[C@H]1O` [IPTG, isopropyl-β-D-thiogalactopyranoside], for which the EC50 is 2.95 µmol/L.
